# Measurements from article PMC11990924, “Inhibition of Tyrosinase and Melanogenesis by Carboxylic Acids: Mechanistic Insights and Safety Evaluation” (Molecules, 2025).
# System: B16-F10 cells
# Assay: Proteomic analysis of B16-F10 cells (DIA mass spectrometry)
# Assay type: cell-based, mouse
# Details: 6 mM vs control; Table S4
# Method: B16-F10 cells were treated with various concentrations of carboxylic acids following the same culture protocol used for melanin inhibition assays. After treatment, the cells were collected and submitted to Shanghai Zhongke Xinming Biotechnology Co., Ltd. (Shanghai, China) for proteomics analysis. The collected cells were lysed with an appropriate volume of SDT lysis buffer (4% SDS, 100 mM Tris-HCl, pH 7.6) to extract proteins. DTT was added to reduce disulfide bonds, followed by incubation at room temperature for 1 h. Subsequently, iodoacetamide was added, and the mixture was reacted in the dark at room temperature for 30 min. The proteins were then digested with trypsin overnight. The resulting peptide fragments were desalted using a C18 cartridge. After freeze-drying, the peptides were resuspended in 40 μL of 0.1% formic acid solution, and the peptide concentration was determined by measuring the absorbance at 280 nm. An appropriate amount of internal reference for targeted proteomics (iRT) standard peptides was added to each sample for data-independent acquisition (DIA) mass spectrometry analysis. Chromatographic separation was performed using a nanoflow Evosep One system. The separated samples were analyzed by DIA mass spectrometry using a timsTOF Pro mass spectrometer (Bruker Daltonics, Bremen, Germany). Detection was conducted in positive-ion mode, with MS and MS/MS scanning ranges set from 100 to 1700 m/z. MS2 data acquisition was performed in DIA mode, with four TIMS scan windows, each accumulating for 100 ms. In PASEF mode, the collision energy varied linearly with ion mobility (1/K0), ranging from 20 to 59 eV for ions with 1/K0 values between 0.85 and 1.30 Vs/cm^2. The DIA data were processed using Spectronaut 19 software with the following parameter settings: retention time prediction type set to dynamic iRT, interference correction on MS2 level enabled, cross-run normalization enabled, maximum missed cleavage sites set to 2, fixed modification set to Carbamidomethyl (C), and variable modifications set to Oxidation (M) and Acetyl (Protein N-term). All results were filtered with a Q-value cutoff of 0.01, corresponding to a false discovery rate (FDR) of less than 1%. The target protein set was annotated using Blast2GO (version BLASTP 2.8.0+). The process included four steps: sequence alignment (Blast), GO mapping, GO annotation, and additional annotation augmentation using InterProScan. Using the KOBAS 3.0 software, KEGG pathway annotation was performed on the target protein set. Fisher’s exact test was employed to compare the distribution of GO categories in the target protein set and the overall protein set, thereby conducting enrichment analysis of the GO annotations in the target protein set. The proteomics dataset generated in this study has been made publicly available through the PRIDE ProteomeXchange Consortium with the dataset identifier PXD061919.
smiles,measurement,value
O=C(O)CC(O)C(=O)O (stereo not shown) [malic acid],Abhd14a protein fold change,0.4947
same,Acvr1b protein fold change,0.348
same,Adgrg1 protein fold change,0.3255
same,Aplp2 protein fold change,0.1925
same,App protein fold change,0.309
same,Arrdc3 protein fold change,0.2723
same,Atp6ap2 protein fold change,0.4615
same,Atxn2l protein fold change,0.3743
same,Bace2 protein fold change,0.2949
same,CUB domain-containing protein (Q3TD85) fold change,0.319
same,Cd151 protein fold change,0.3796
same,Cox6a1 protein fold change,2.331
same,Cpe protein fold change,0.425
same,Cryab protein fold change,0.4352
same,Ctns protein fold change,0.4962
same,Cxne protein fold change,0.4043
same,Cyp51a1 protein fold change,0.4596
same,Dct protein fold change,0.453
same,Ddr1 protein fold change,0.4956
same,Dgcr2 protein fold change,0.4757
same,Dhrsx protein fold change,0.4224
same,E2f5 protein fold change,2.052
same,Eng protein fold change,0.4971
same,Fam174b protein fold change,0.4334
same,Fau protein fold change,4.207
same,Fip1l1 protein fold change,0.4619
same,Fth1 protein fold change,2.2552
same,Ftl1 protein fold change,2.521
same,Ginm1 protein fold change,0.2408
same,Globin family profile domain-containing protein (Q8BPF4) fold change,0.4868
same,Gpnmb protein fold change,0.4267
same,H1-0 protein fold change,2.091
same,H1-1 protein fold change,2.387
same,Haghl protein fold change,2.0913
same,Hbbt1 protein fold change,0.3537
same,Hist2h2aa1 protein fold change,5.559
same,Hspb1 protein fold change,0.432
same,Ifitm2 protein fold change,0.2473
same,Ifitm3 protein fold change,0.405
same,Ifngr1 protein fold change,0.477
same,Il10rb protein fold change,0.279
same,Il17ra protein fold change,0.4348
same,Itih3 protein fold change,0.2609
same,Itm2b protein fold change,0.1357
same,Itm2c protein fold change,0.2222
same,Lama2 protein fold change,2.748
same,Laptm4b protein fold change,0.1099
same,Ldlr protein fold change,0.3286
same,Lgmn protein fold change,0.3573
same,Lmbrd1 protein fold change,0.4382
same,Map1lc3b protein fold change,0.4627
same,Mapre2 protein fold change,0.4775
same,Mfap3 protein fold change,0.2203
same,Mfge8 protein fold change,0.4888
same,Mlana protein fold change,0.1802
same,Ndfip1 protein fold change,0.1482
same,Nrp1 protein fold change,0.4816
same,Nrp2 protein fold change,0.3963
same,Nus1 protein fold change,0.4939
same,Pbx1 protein fold change,2.038
same,Pcdhgb2 protein fold change,0.2826
same,Peli1 protein fold change,0.4419
same,Plekhb2 protein fold change,0.4812
same,Pmel protein fold change,0.458
same,Ppp1r12b protein fold change,2.498
same,Psap protein fold change,0.4952
same,Ptprs protein fold change,0.4661
same,Pwwp3a protein fold change,2.511
same,Rhob protein fold change,0.4341
same,Rhoj protein fold change,0.4834
same,Rnf130 protein fold change,0.4325
same,Sdcbp protein fold change,0.4716
same,Sema4b protein fold change,0.4477
same,Sema6d protein fold change,0.4605
same,Sgce protein fold change,0.2346
same,Sh3bp2 protein fold change,0.3699
same,Slc4a2 protein fold change,0.4141
same,Slc24a5 protein fold change,0.4133
same,Slc38a2 protein fold change,0.2034
same,Slc45a2 protein fold change,0.4213
same,Sppl2b protein fold change,0.4857
same,Spring1 protein fold change,0.2636
same,Syt4 protein fold change,0.1657
same,Tax1bp1 protein fold change,0.4715
same,Tcf7l1 protein fold change,0.4286
same,Tgfbr1 protein fold change,0.4711
same,Tk1 protein fold change,2.015
same,Tmem59 protein fold change,0.1062
same,Tmem176a protein fold change,0.2285
same,Tnfrsf1a protein fold change,0.4638
same,Tpp1 protein fold change,0.3033
same,Tspan3 protein fold change,0.3098
same,Tspan6 protein fold change,0.466
same,Tspan10 protein fold change,0.2722
same,Tspan14 protein fold change,0.4171
same,Tyr protein fold change,0.3761
same,Tyrp1 protein fold change,0.2755
same,Ubl3 protein fold change,0.2044
same,Wfdc3 protein fold change,0.3403
same,il6st protein fold change,0.3637
